Among the data in patent US4386090A, “Nitrogen containing 2,3-dihydro naphthalenes, compositions and use” (Delalande S.A., priority 1980, dated 1983) are LD50 and ED50 values, retold here.

One series is described as follows: acute toxicity (LD 50). The conditions noted are these: in vivo, ip. From the text:
To illustrate the invention, there are shown in table IV below, the results obtained in these two tests and the acute toxicity (LD 50) of some compounds of formula (I).

The test system of series [1] is mice. The series can be described thus: analgesic activity, phenylbenzoquinone test (E. SIEGMUND). The format is in vivo. The conditions noted are these: Mus musculus, ip, read-out: ED 50 analgesic property. The text has this: Soc. Exp. Biol. and Med. 95, 729, (1957).
Series [2] concerns mice. The series is described as follows: antidepressive activity, antagonism to ptosis after intravenous injection of reserpine. The format is in vivo. The conditions noted are these: Mus musculus, ip, 1 h, i.p., ptosis observed an hour after i.v. reserpine 2 mg/kg, read-out: ED 50 antidepressive property. From the text: GOURET and J. THOMAS in J. Pharmacol. (Paris) (1973), 4, 401.

Broadly, the LD50 is the dose at which mortality reaches 50%. Lower therefore signals a more toxic substance.

In “acute toxicity (LD 50)”, `CNCCC1Cc2ccccc2C(c2ccccc2F)=N1` (centres unmarked) [compound 21] registered an LD50 of 70 mg/kg. The results for the ED50 with mice [1] and in the series on mice [2] were 10 mg/kg and 1.2 mg/kg, respectively.
For `CN(C)CC1Cc2ccc(Cl)cc2C(c2ccccc2F)=N1` (centres unmarked) [Code Number 9], the LD50 in “acute toxicity (LD 50)” came out at 52 mg/kg. Moreover, the ED50 came to 3 mg/kg in the series with mice [1] and 4.3 mg/kg with mice [2].
The molecule `CN(C)CCC1Cc2ccccc2C(c2ccccc2C(F)(F)F)=N1` (centres unmarked) [compound 103] registered an LD50 in “acute toxicity (LD 50)” of 70 mg/kg. Also, in the series on mice [2], the ED50 stood at 3.8 mg/kg.
Consider `CN1CCN(CC2Cc3c(Cl)cccc3C(c3ccccc3)=N2)CC1` (centres unmarked) [compound 94], for which the LD50 in “acute toxicity (LD 50)” is 140 mg/kg. Moreover, the ED50 with mice [1] was determined as 22 mg/kg.
For `COc1cc2c(cc1OC)C(c1ccccc1)=NC(CCN(C)C)C2` (centres unmarked) [compound 105], the LD50 in the series “acute toxicity (LD 50)” came out at 165 mg/kg. The ED50 in the series with mice [1] came to 12 mg/kg; with mice [2], 30 mg/kg.
For `CN(C)CC1Cc2ccccc2C(c2ccccc2F)=N1` (centres unmarked) [Code Number 8], in that order: 35 mg/kg, 2.3 mg/kg and 1.1 mg/kg.
For `CN(C)CCC1C=C(c2ccccc2F)c2ccccc2C1` (centres unmarked) [compound 101], in that order: 93 mg/kg, 4.3 mg/kg and 0.4 mg/kg.
For `CNCCC1Cc2ccccc2C(c2ccccc2)=N1` (centres unmarked) [compound 16], in that order: 65 mg/kg, 10 mg/kg and 8.2 mg/kg.
With `CN(C)CCC1Cc2ccccc2C(c2ccccc2[N+](=O)[O-])=N1` (centres unmarked) [compound 34], the LD50 in “acute toxicity (LD 50)” was found to be 77 mg/kg. Further, the ED50 with mice [1] came to 3.4 mg/kg; in the series with mice [2], 1 mg/kg.
`Cc1ccc2c(c1)C(c1ccccc1)=NC(CN1CCN(C)CC1)C2` (centres unmarked) [compound 99] registered an LD50 in “acute toxicity (LD 50)” of 130 mg/kg. In addition, in the series with mice [1], the ED50 worked out at 30 mg/kg.
Turning to `COc1ccccc1C1=NC(CCN(C)C)Cc2ccccc21` (centres unmarked) [compound 28], the LD50 in the series “acute toxicity (LD 50)” was 42 mg/kg. Besides, the ED50 with mice [1] was found to be 10 mg/kg; in the series on mice [2], 3 mg/kg.
Regarding `CN(C)CCC1Cc2ccccc2C(c2ccccc2Br)=N1` (centres unmarked) [compound 36], the LD50 in the series “acute toxicity (LD 50)” is 77 mg/kg. Besides, the ED50 with mice [2] was 2.4 mg/kg.
`CN(C)CCC1Cc2c(Cl)cccc2C(c2ccccc2)=N1` (centres unmarked) [compound 18] displayed an LD50 in “acute toxicity (LD 50)” of 70 mg/kg. In the series with mice [1], the ED50 turned out to be 1 mg/kg.
`CN(C)CC1COc2ccccc2C(c2cccc(F)c2)=N1` (centres unmarked) [compound 87]: the LD50 in the series “acute toxicity (LD 50)” was 100 mg/kg. For the same molecule, in the series on mice [2], the ED50 worked out at 30 mg/kg.
Consider `COc1ccc(C2=NC(CCN(C)C)Cc3ccccc32)cc1` (centres unmarked) [compound 30], for which the LD50 in “acute toxicity (LD 50)” is 70 mg/kg. Moreover, in the series with mice [2], the ED50 was 4.2 mg/kg.
With `CCN(CC)CC1Cc2ccc(C)cc2C(c2ccccc2)=N1` (centres unmarked) [compound 95], the LD50 in the series “acute toxicity (LD 50)” was 45 mg/kg. The ED50 in the series on mice [1] amounted to 10 mg/kg.
The molecule `COc1cc2c(cc1OC)C(c1ccccc1)=NC(CN(C)C)C2` (centres unmarked) [compound 14] returned an LD50 in the series “acute toxicity (LD 50)” of 135 mg/kg. The ED50 with mice [1] was 15 mg/kg.
The molecule `Cc1ccc2c(c1)C(c1ccccc1)=NC(CN1CCOCC1)C2` (centres unmarked) [compound 98] registered an LD50 in “acute toxicity (LD 50)” of 125 mg/kg. Also, the ED50 in the series with mice [1] is 30 mg/kg.
For `CN(C)CCC1Cc2ccccc2C(c2cccc(C(F)(F)F)c2)=N1` (centres unmarked) [compound 104], in that order: 62 mg/kg and 4.3 mg/kg.
`Cc1ccc2c(c1)C(c1ccccc1)=NC(CN1CCCCC1)C2` (centres unmarked) [compound 97] registered an LD50 in the series “acute toxicity (LD 50)” of 52 mg/kg. Besides, in the series with mice [1], the ED50 was determined as 10 mg/kg.
For the molecule `COc1ccc2c(c1)C(c1ccccc1)=NC(CN(C)C)C2` (centres unmarked) [compound 13], in “acute toxicity (LD 50)”, the LD50 is 65 mg/kg. For the same molecule, in the series with mice [1], the ED50 is 3 mg/kg.
Regarding `CN(C)CC1COc2ccccc2C(c2ccccc2)=N1` (centres unmarked) [compound 40], the LD50 in the series “acute toxicity (LD 50)” stood at 80 mg/kg. For the same molecule, the ED50 with mice [1] is 3 mg/kg.
For the molecule `CN(C)CCCC1Cc2ccccc2C(c2ccccc2)=N1` (centres unmarked) [compound 38], in “acute toxicity (LD 50)”, the LD50 worked out at 85 mg/kg. The ED50 in the series with mice [2] worked out at 3.4 mg/kg.
`CN1CCN(CCC2Cc3c(Cl)cccc3C(c3ccccc3)=N2)CC1` (centres unmarked) [compound 106] yielded an LD50 in the series “acute toxicity (LD 50)” of 145 mg/kg. Moreover, in the series with mice [1], the ED50 was determined as 12 mg/kg.
